Measurements published in patent US9688710B2, “Inhibitors of sodium glucose cotransporter 1” (LEXICON PHARMACEUTICALS, INC., priority 2012, dated 2017).

Legend:
[1] = molecular target: Human sodium/glucose co-transporter type 2 (SGLT2) (Homo sapiens (Human), UniProt P31639); test: In vitro human SGLT2 inhibition assay (14C-AMG uptake); format: cell-based; details: HEK293 cells expressing human HA-SGLT2, 14C-AMG uptake
In short: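 Uptake of 14C-AMG (100 nCi) was followed in a stable HEK293 HA-SGLT2 line over 1-2 h at 37 °C with or without compound. Buffer: 140 mM NaCl, 10 mM HEPES, 5 mM Tris, 1 mg/mL BSA, pH 7.3. Readout was scintillation counting after washing.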

[2] = molecular target: Human sodium/glucose co-transporter type 1 (SGLT1) (Homo sapiens (Human), UniProt P13866); test: In vitro human SGLT1 inhibition assay (14C-AMG uptake); format: cell-based; parameters: key to SGLT1 (human SGLT1 IC50): ***: a value less than 0.01 μM; **: a value less than 0.1 μM; *: a value less than 1 μM; —: a value not measured or exceeding μM; details: HEK293 cells expressing human HA-SGLT1, 14C-AMG uptake
Sequence of Human sodium/glucose co-transporter type 1 (SGLT1) (P13866 whole entry): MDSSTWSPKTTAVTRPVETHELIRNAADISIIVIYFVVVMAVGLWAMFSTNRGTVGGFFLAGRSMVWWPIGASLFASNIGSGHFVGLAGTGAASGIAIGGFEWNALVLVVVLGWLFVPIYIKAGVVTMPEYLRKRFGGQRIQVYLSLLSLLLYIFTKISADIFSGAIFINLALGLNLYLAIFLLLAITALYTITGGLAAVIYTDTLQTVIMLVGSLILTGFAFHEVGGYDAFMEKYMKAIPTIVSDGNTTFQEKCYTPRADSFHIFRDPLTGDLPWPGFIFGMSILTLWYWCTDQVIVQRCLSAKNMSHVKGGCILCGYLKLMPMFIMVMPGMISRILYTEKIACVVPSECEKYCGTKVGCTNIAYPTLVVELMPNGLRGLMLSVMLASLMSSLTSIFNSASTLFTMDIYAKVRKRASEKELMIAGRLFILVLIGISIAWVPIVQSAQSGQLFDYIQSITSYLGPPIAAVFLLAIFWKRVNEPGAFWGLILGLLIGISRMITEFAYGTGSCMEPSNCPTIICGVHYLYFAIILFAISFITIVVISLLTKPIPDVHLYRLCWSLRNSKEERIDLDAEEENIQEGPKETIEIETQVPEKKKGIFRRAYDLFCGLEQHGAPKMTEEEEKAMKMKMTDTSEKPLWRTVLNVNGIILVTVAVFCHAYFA
In short: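 Uptake of 14C-AMG (100 nCi) was measured by scintillation counting after 1–2 h at 37 °C, 5% CO2, with or without compound. The buffer was pH 7.3 with 140 mM NaCl, 1 mM CaCl2, 1 mM MgCl2 and 1 mg/mL BSA. Cells were a stable HEK293 line carrying HA-SGLT1 (human), plated overnight at 30,000 per well.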

Sequence of Human sodium/glucose co-transporter type 2 (SGLT2) (P31639 whole entry): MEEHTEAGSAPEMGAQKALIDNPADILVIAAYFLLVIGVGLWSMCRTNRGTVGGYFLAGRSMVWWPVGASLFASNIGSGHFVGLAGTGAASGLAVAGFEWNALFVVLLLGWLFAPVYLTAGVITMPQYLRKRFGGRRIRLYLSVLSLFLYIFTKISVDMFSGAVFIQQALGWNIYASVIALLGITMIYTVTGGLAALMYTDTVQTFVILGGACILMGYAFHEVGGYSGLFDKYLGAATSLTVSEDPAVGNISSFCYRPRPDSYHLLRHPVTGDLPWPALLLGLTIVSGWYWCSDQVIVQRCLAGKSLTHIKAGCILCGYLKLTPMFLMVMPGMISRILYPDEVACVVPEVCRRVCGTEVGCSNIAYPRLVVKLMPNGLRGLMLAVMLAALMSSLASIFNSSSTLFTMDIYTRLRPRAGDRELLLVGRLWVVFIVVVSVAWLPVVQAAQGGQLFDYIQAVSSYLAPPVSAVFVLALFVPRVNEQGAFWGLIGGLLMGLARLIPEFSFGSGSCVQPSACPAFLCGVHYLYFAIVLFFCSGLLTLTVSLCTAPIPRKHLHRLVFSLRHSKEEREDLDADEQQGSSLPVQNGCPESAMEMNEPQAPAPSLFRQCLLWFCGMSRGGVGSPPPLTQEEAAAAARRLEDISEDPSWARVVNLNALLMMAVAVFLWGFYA

| SMILES | IC50 [1] | IC50 [2] | SGLT1 (human SGLT1 IC50) [2] |
| --- | --- | --- | --- |
| CS[C@H]1O[C@@H](c2ccc(C)c(Cc3ccc(CCCCCNC(=O)NC(C)(C)C(N)=O)cc3)c2)[C@H](O)[C@@H](O)[C@@H]1O [2-methyl-2-(3-(5-(4-(2-methyl-5-((2S,3R,4R,5S,6R)-3,4,5-trihydroxy-6-(methylthio)tetrahydro-2H-pyran-2-yl)benzyl)phenyl)pentyl)ureido)propanamide] | < 10 nM | < 100 nM |  |
| CS[C@H]1O[C@@H](c2ccc(C)c(Cc3ccc(OCC(=O)NCC(C)(C)C(N)=O)cc3)c2)[C@H](O)[C@@H](O)[C@@H]1O [2,2-dimethyl-3-(2-(4-(2-methyl-5-((2S,3R,4R,5S,6R)-3,4,5-trihydroxy-6-(methylthio)tetrahydro-2H-pyran-2-yl)benzyl)phenoxy)acetamido)propanamide] | < 10 nM | < 100 nM |  |
| CS[C@H]1O[C@@H](c2ccc(C)c(Cc3ccc(CCCCCCC(=O)NC(C)(C)CO)cc3)c2)[C@H](O)[C@@H](O)[C@@H]1O [N-(1-hydroxy-2-methylpropan-2-yl)-7-(4-(2-methyl-5-((2S,3R,4R,5S,6R)-3,4,5-trihydroxy-6-(methylthio)tetrahydro-2H-pyran-2-yl)benzyl)phenyl)heptanamide] | < 10 nM | < 100 nM |  |
| CS[C@H]1O[C@@H](c2ccc(C)c(Cc3ccc(OCC(O)CO)cc3)c2)[C@H](O)[C@@H](O)[C@@H]1O (stereo partly drawn) [(2S,3R,4R,5S,6R)-2-(3-(4-(2,3-dihydroxypropoxy)benzyl)-4-methylphenyl)-6-(methylthio)tetrahydro-2H-pyran-3,4,5-triol] | < 100 nM | < 100 nM |  |
| CS[C@H]1O[C@@H](c2ccc(Cl)c(Cc3ccc(OCCCC(=O)NC4CCCCC4N4CCOCC4)cc3)c2)[C@H](O)[C@@H](O)[C@@H]1O (stereo partly drawn) [4-(4-(2-chloro-5-((2S,3R,4R,5S,6R)-3,4,5-trihydroxy-6-(methylthio)tetrahydro-2H-pyran-2-yl)benzyl)phenoxy)-N-(2-morpholinocyclohexyl)butanamide] | < 10 nM | < 100 nM |  |
| CS[C@H]1O[C@@H](c2ccc(C)c(Cc3ccc(CCCCNCC(O)CO)cc3)c2)[C@H](O)[C@@H](O)[C@@H]1O (stereo partly drawn) [(2S,3R,4R,5S,6R)-2-(3-(4-(4-((2,3-dihydroxypropyl)amino)butyl)benzyl)-4-methylphenyl)-6-(methylthio)tetrahydro-2H-pyran-3,4,5-triol] | < 10 nM | < 100 nM |  |
| CS[C@H]1O[C@@H](c2ccc(C)c(Cc3ccc(CCCC(=O)NCC(C)(C)C(=O)O)cc3)c2)[C@H](O)[C@@H](O)[C@@H]1O [2,2-dimethyl-3-(4-(4-(2-methyl-5-((2S,3R,4R,5S,6R)-3,4,5-trihydroxy-6-(methylthio)tetrahydro-2H-pyran-2-yl)benzyl)phenyl)butanamido)propanoic acid] | < 10 nM | < 100 nM |  |
| CS[C@H]1O[C@@H](c2ccc(C)c(Cc3ccc(OCCCC(=O)NC(C)(C)C(N)=O)cc3)c2)[C@H](O)[C@@H](O)[C@@H]1O [N-(1-amino-2-methyl-1-oxopropan-2-yl)-4-(4-(2-methyl-5-((2S,3R,4R,5S,6R)-3,4,5-trihydroxy-6-(methylthio)tetrahydro-2H-pyran-2-yl)benzyl)phenoxy)butanamide] | < 10 nM | < 10 nM |  |
| CS[C@H]1O[C@@H](c2ccc(Cl)c(Cc3ccc(OCCCC(=O)NC(CO)(CO)CO)cc3)c2)[C@H](O)[C@@H](O)[C@@H]1O [4-(4-(2-chloro-5-((2S,3R,4R,5S,6R)-3,4,5-trihydroxy-6-(methylthio)tetrahydro-2H-pyran-2-yl)benzyl)phenoxy)-N-(1,3-dihydroxy-2-(hydroxymethyl)propan-2-yl)butanamide] | < 10 nM | < 100 nM |  |
| CS[C@H]1O[C@@H](c2ccc(C)c(Cc3ccc(CCCCCN)cc3)c2)[C@H](O)[C@@H](O)[C@@H]1O [(2S,3R,4R,5S,6R)-2-(3-(4-(5-aminopentyl)benzyl)-4-methylphenyl)-6-(methylthio)tetrahydro-2H-pyran-3,4,5-triol] | < 10 nM | < 100 nM |  |
| CS[C@H]1O[C@@H](c2ccc(C)c(Cc3ccc(CCCCNCC(C)(C)C(N)=O)cc3)c2)[C@H](O)[C@@H](O)[C@@H]1O [2,2-dimethyl-3-((4-(4-(2-methyl-5-((3R,4R,5S,6R)-3,4,5-trihydroxy-6-(methylthio)tetrahydro-2H-pyran-2-yl)benzyl)phenyl)butyl)amino)propanamide] | < 10 nM | < 10 nM |  |
| CS[C@H]1O[C@@H](c2ccc(Cl)c(Cc3ccc(OCCCC(=O)NC(C)(C)C(N)=O)cc3)c2)[C@H](O)[C@@H](O)[C@@H]1O [N-(1-amino-2-methyl-1-oxopropan-2-yl)-4-(4-(2-chloro-5-((2S,3R,4R,5S,6R)-3,4,5-trihydroxy-6-(methylthio)tetrahydro-2H-pyran-2-yl)benzyl)phenoxy)butanamide] | < 10 nM | < 10 nM |  |
| CS[C@H]1O[C@@H](c2ccc(Cl)c(Cc3ccc(OCC(=O)NCCCC[C@H](N)C(=O)O)cc3)c2)[C@H](O)[C@@H](O)[C@@H]1O [(S)-2-amino-6-(2-(4-(2-chloro-5-((2S,3R,4R,5S,6R)-3,4,5-trihydroxy-6-(methylthio)tetrahydro-2H-pyran-2-yl)benzyl)phenoxy)acetamido)hexanoic acid] | < 10 nM | < 100 nM |  |
| CS[C@H]1O[C@@H](c2ccc(C)c(Cc3ccc(OCCNC(=N)N)cc3)c2)[C@H](O)[C@@H](O)[C@@H]1O [1-(2-(4-(2-methyl-5-((2S,3R,4R,5S,6R)-3,4,5-trihydroxy-6-(methylthio)tetrahydro-2H-pyran-2-yl)benzyl)phenoxy)ethyl)guanidine] | < 10 nM | < 10 nM |  |
| CS[C@H]1O[C@@H](c2ccc(C)c(Cc3ccc(OCCCC(=O)O)cc3)c2)[C@H](O)[C@@H](O)[C@@H]1O [4-(4-(2-methyl-5-((2S,3R,4R,5S,6R)-3,4,5-trihydroxy-6-(methylthio)tetrahydro-2H-pyran-2-yl)benzyl)phenoxy)butanoic acid] | < 100 nM |  | — |

More lines, now with the values ahead:

| IC50 [1] | IC50 [2] | SGLT1 (human SGLT1 IC50) [2] | SMILES |
| --- | --- | --- | --- |
| < 10 nM | < 100 nM |  | CS[C@H]1O[C@@H](c2ccc(Cl)c(Cc3ccc(OCCCC(=O)N(CCO)CCO)cc3)c2)[C@H](O)[C@@H](O)[C@@H]1O [4-(4-(2-chloro-5-((2S,3R,4R,5S,6R)-3,4,5-trihydroxy-6-(methylthio)tetrahydro-2H-pyran-2-yl)benzyl)phenoxy)-N,N-bis(2-hydroxyethyl)butanamide] |
| < 10 nM | < 10 nM |  | CS[C@H]1O[C@@H](c2ccc(C)c(Cc3ccc(CCCCC(=O)NC(CO)(CO)CO)cc3)c2)[C@H](O)[C@@H](O)[C@@H]1O [N-(1,3-dihydroxy-2-(hydroxymethyl)propan-2-yl)-5-(4-(2-methyl-5-((2S,3R,4R,5S,6R)-3,4,5-trihydroxy-6-(methylthio)tetrahydro-2H-pyran-2-yl)benzyl)phenyl)pentanamide] |
| < 10 nM | < 10 nM |  | CS[C@H]1OC(c2ccc(C)c(Cc3ccc(OCCCNC(C)(CO)CO)cc3)c2)[C@H](O)[C@@H](O)[C@@H]1O (stereo partly drawn) [(3R,4R,5S,6R)-2-(3-(4-(3-((1,3-dihydroxy-2-methylpropan-2-yl)amino)propoxy)benzyl)-4-methylphenyl)-6-(methylthio)tetrahydro-2H-pyran-3,4,5-triol] |
| < 10 nM | < 10 nM |  | CS[C@H]1O[C@@H](c2ccc(C)c(Cc3ccc(OCCCC(=O)NC(C)(C)C(=O)NC4CCN(C)CC4)cc3)c2)[C@H](O)[C@@H](O)[C@@H]1O [N-(2-methyl-1-((1-methylpiperidin-4-yl)amino)-1-oxopropan-2-yl)-4-(4-(2-methyl-5-((2S,3R,4R,5S,6R)-3,4,5-trihydroxy-6-(methylthio)tetrahydro-2H-pyran-2-yl)benzyl)phenoxy)butanamide] |
| < 10 nM | < 100 nM |  | CS[C@H]1O[C@@H](c2ccc(C)c(Cc3ccc(CCCCCN(C[C@H](O)CO)C[C@H](O)CO)cc3)c2)[C@H](O)[C@@H](O)[C@@H]1O [(2S,3R,4R,5S,6R)-2-(3-(4-(5-(bis((S)-2,3-dihydroxypropyl)amino)pentyl)benzyl)-4-methylphenyl)-6-(methylthio)tetrahydro-2H-pyran-3,4,5-triol] |
| < 10 nM | < 100 nM |  | CS[C@H]1O[C@@H](c2ccc(C)c(Cc3ccc(OCCCC(=O)N[C@@H](CO)C(N)=O)cc3)c2)[C@H](O)[C@@H](O)[C@@H]1O [N-((S)-1-amino-3-hydroxy-1-oxopropan-2-yl)-4-(4-(2-methyl-5-((2S,3R,4R,5S,6R)-3,4,5-trihydroxy-6-(methylthio)tetrahydro-2H-pyran-2-yl)benzyl)phenoxy)butanamide] |
| < 10 nM | < 100 nM |  | CS[C@H]1O[C@@H](c2ccc(C)c(Cc3ccc(OCCCC(=O)NCC(C)(C)C(N)=O)cc3)c2)[C@H](O)[C@@H](O)[C@@H]1O [N-(3-amino-2,2-dimethyl-3-oxopropyl)-4-(4-(2-methyl-5-((2S,3R,4R,5S,6R)-3,4,5-trihydroxy-6-(methylthio)tetrahydro-2H-pyran-2-yl)benzyl)phenoxy)butanamide] |
| < 10 nM | < 10 nM |  | CS[C@H]1O[C@@H](c2ccc(C)c(Cc3ccc(OCCCC(=O)NC(C)(C)C(=O)NCCN(C)C)cc3)c2)[C@H](O)[C@@H](O)[C@@H]1O [N-(1-((2-(dimethylamino)ethyl)amino)-2-methyl-1-oxopropan-2-yl)-4-(4-(2-methyl-5-((2S,3R,4R,5S,6R)-3,4,5-trihydroxy-6-(methylthio)tetrahydro-2H-pyran-2-yl)benzyl)phenoxy)butanamide] |
